Test results as given in US7078382B1, “Modulation of eNOS activity and therapeutic uses thereof” (Genentech, Inc., priority 1999, dated 2006).
Entries after “also recorded” stand apart in the source; their conditions may differ.

Key:
eNOS expression = eNOS expression by Western blot in ACE cells; assay type: cell-based, bovine; conditions: for eNOS expression, time course: 0-5 days, VEGF alone or co-incubated with L-NAME (2 mM) or SNAP; for effect of signalling inhibitors on VEGF-induced eNOS expression: with 500 pM rhVEGF; for effect on VEGF-induced eNOS expression, KDR tyrosine kinase inhibitor: co-incubated with 500 pM rhVEGF; for eNOS expression with angiogenic factors / eNOS expression with KDR-specific VEGF variants: 500 pM; for eNOS expression with VEGF forms and receptor-selective variants: equal concentrations, two days
Procedure: At the end of incubation, total cell lysates were prepared, and eNOS protein levels were determined by Western blot analysis.
Bovine adrenal cortex capillary endothelial cells (ACE) were prepared and maintained as previously described (Ferrara et.al., 1989 Biochem. Biophys. Res. Commun. 161:851–858). Briefly, cells were plated onto 6-well tissue culture plates (Costar) and grown in low glucose Dulbecco's modified Eagle's medium, supplemented with 2 mM […] (Life Technologies), 10% bovine calf serum (HyClone Lab., Inc.) and 100 μg/ml Penicillin/Streptomycin (Life Technologies). ACE cells were used between passages 4 and 8.
Medium was changed every 24 hours.
The methods for cell lysis and Western blot (WB) have been described in Shen et al., 1998 J. Biol. Chem. 273:29979–29985. A monoclonal anti-eNOS antibody was used at 1:2500 to probe eNOS protein. A secondary antibody conjugated with horseradish peroxidase (1:2500) (Zymed) and an enhanced chemiluminescent kit (Amershal Pharmacia Biotech) were used to visualize the eNOS immunoreactive bands. Multiple exposures of films were obtained to determine the optical exposure time. The protein bands were scanned by a densitometer and the relative intensities were quantified using IMAGEQUANT® software (Molecular Dynamics).
(§1) Confluent ACE cells were incubated with 500 pM rhVEGF. Total cell lysates were prepared as described above. Equal amounts of protein were denatured under reducing conditions and separated in a 10% Novex mini gel and transferred to PVDF membrane. eNOS protein signals were visualized by ECL and quantified using densitometry.

Flt-1 receptor [1] = assay: Flt-1 receptor binding ELISA (inhibition of biotinylated native VEGF binding to Flt-IgG); conditions: first figure of the cell, read-out: Binding to FLT-1 Receptor, concentration at midpoint absorbance
Procedure: Receptor binding assays were performed in 96-well immunoplates (Maxisorp, Nunc-Immunoplate, Nalge Nunc International, Rochester, N.Y.). Each well was coated with 100 μl of a solution containing 2 μg/ml of rabbit F(ab′)2 to human IgG Fc (Jackson ImmunoResearch, West Grove, Pa.) in 50 mM carbonate buffer at pH 9.6 and incubated at 4° C. overnight. The supernatant was then discarded, the wells were washed three times in washing buffer (0.05% Tween 20 in PBS), and the plate was blocked (150 μl per well) with block buffer (0.5% BSA, 0.01% thimerosal in PBS) at room temperature for one hour. The supernatant was discarded, and the wells were washed.
The wells were filled with 100 μl of a solution containing Flt-IgG (a chimeric Flt-human Fc molecule) at 50 ng/ml in assay buffer (0.5% BSA, 0.05% Tween 20 in PBS). The wells were incubated at room temperature for 1 hour and then washed three times in wash buffer (0.05% Tween 20 in PBS).
Aliquots of the mixture (100 μl) were added to the precoated microtiter wells and the plate was incubated for 2 hours at room temperature. […] Absorbance was read at 450 nm on a Vmax plate reader (Molecular Devices, Menlo Park, Calif.).
Titration curves were fit with a four-parameter nonlinear regression curve-fitting program (KaleidaGraph, Synergy Software, Reading, Pa.).

KDR receptor = biological target: T1, KDR receptor (Homo sapiens, UniProt P35968); assay: RIA binding assay, KDR receptor
T1 construct: host or cells: CHO cells

Flt-1 receptor [2] = biological target: Flt-1 receptor (Homo sapiens, UniProt P17948); assay: RIA binding assay, FLT-1 receptor
Description: The results are shown below in Table 6.

eNOS activity = conditions: ACE cells
Procedure: as §1

[3] = coronary artery disease patients, intracoronary or intravenous infusion at 0.05 microgram/Kg body weight/minute
Description: In one aspect, the invention provides methods for treating a NO associated disorder or condition such as hypertension, diabetes, thrombosis, angina, heart failure or atherosclerosis.

PKC = conditions: ACE cells, rhVEGF 500 pM, 10 minutes
Procedure: Cytosolic and membrane fractions were prepared to investigate the re-distribution or PKC isoforms. […] (See FIG. 5A).

[4] = angina patients, prolonged time point, early results
Description: Luscher TF (1992) Br. J. Clin. Pharmacol. 34 Suppl. 1:29S–35S.

PAE/FLT-1 cells = conditions: 500 pM rhVEGF, 2 days
Procedure: Porcine aorta endothelial (PAE) cells, and receptor transfected PAE cells (PAE/KDR and PAE/FLT-1) were provided by Napoleone Ferrara (Genentech, Inc.) and cultured in Ham's F-12 medium containing 10% FBS (for PAE), or plus 250 μg/ml G480 (for PAE/KDR and PAE/FLT-1).
PAE, PAE/KDR and PAE/Flt-1 cells were incubated with or without 500 pM rhVEGF for 2 days. eNOS was detected as described above for Example 1. Other materials and methods used in this study were as described above for Example 1.

eNOS = assay: Association of proteins with eNOS (immunoprecipitation, Western blot) in endothelial cells; conditions: VEGF 1-60 minutes

Chain of Flt-1 receptor (Homo sapiens, UniProt P17948) (P17948 27-1338): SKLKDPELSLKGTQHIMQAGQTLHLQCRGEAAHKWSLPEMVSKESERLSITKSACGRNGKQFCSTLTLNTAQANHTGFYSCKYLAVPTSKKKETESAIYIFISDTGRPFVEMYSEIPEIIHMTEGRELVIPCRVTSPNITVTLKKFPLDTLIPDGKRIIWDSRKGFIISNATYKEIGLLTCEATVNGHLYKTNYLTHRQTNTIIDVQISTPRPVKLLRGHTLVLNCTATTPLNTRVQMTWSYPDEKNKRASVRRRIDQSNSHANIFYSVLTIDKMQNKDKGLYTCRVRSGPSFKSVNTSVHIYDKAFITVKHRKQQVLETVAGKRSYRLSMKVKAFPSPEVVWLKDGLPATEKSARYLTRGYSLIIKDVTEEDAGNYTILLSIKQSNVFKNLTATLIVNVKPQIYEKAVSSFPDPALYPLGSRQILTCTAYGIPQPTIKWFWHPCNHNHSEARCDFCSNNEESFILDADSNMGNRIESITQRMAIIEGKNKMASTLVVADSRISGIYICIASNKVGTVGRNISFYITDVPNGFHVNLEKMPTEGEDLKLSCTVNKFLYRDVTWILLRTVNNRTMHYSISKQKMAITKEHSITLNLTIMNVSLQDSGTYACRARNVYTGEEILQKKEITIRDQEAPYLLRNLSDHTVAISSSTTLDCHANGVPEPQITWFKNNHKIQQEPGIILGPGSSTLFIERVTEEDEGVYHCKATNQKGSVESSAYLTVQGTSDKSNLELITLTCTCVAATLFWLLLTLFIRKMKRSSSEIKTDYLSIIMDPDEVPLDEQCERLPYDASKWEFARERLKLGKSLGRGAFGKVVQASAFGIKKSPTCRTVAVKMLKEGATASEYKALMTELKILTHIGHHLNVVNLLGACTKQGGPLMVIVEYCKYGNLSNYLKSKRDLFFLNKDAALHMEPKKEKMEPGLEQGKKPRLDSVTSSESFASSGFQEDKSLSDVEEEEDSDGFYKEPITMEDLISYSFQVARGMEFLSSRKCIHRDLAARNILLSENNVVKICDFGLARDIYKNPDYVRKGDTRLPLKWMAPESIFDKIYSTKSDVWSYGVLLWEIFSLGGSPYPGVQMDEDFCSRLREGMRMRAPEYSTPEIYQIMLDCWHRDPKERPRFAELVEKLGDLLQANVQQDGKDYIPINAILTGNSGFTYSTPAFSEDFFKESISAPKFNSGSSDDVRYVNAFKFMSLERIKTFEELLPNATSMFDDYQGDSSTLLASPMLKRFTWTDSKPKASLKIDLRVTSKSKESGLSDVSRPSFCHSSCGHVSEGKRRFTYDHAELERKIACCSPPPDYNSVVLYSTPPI
Chain of Flt-1 receptor (P17948 27-327 limits assumed): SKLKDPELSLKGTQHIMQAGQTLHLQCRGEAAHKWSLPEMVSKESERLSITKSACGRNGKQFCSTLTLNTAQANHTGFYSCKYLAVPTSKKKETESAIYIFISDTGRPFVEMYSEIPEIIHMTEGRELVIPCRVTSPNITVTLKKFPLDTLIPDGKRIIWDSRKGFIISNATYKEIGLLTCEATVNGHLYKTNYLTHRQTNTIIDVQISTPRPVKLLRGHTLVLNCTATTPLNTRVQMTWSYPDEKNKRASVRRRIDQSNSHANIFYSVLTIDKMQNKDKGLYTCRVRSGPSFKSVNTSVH
T1 sequence (P35968 20-1356): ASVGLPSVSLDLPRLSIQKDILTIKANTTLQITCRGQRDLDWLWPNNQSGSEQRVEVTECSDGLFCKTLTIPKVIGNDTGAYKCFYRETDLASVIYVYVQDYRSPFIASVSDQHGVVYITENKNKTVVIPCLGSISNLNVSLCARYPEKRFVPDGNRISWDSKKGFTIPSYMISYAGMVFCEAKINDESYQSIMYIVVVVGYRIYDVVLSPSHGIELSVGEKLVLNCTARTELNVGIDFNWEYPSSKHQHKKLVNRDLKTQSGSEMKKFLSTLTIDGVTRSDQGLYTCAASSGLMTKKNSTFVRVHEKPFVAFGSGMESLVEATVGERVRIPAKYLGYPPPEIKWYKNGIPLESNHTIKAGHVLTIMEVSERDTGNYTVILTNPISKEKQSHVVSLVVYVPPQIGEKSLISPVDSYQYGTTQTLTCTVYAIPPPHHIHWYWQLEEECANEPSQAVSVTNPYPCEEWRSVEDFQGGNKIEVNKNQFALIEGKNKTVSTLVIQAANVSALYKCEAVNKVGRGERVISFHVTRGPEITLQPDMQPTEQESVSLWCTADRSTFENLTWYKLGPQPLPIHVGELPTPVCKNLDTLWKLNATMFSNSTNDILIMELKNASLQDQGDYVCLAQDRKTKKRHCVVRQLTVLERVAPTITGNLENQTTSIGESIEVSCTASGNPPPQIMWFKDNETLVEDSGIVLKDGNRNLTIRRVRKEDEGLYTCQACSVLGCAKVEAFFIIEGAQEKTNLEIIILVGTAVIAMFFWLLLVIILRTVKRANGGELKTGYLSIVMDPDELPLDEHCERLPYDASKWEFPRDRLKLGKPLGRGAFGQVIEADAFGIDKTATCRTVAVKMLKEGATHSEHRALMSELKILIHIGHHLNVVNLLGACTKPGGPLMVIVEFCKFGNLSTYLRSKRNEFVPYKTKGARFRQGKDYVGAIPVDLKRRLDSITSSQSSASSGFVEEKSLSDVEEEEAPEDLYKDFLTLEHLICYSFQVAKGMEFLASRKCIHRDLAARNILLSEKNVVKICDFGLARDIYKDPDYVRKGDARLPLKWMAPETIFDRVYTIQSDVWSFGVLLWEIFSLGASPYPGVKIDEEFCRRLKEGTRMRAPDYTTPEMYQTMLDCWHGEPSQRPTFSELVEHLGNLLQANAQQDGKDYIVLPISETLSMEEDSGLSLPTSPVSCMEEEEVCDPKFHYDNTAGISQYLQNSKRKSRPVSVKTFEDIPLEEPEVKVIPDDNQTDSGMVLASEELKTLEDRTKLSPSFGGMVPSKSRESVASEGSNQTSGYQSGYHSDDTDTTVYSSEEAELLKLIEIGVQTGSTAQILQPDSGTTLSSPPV

Q: With `COC(=O)[C@@H](N)CCCNC(=N)N[N+](=O)[O-]` [L-NAME, L-N^G-Nitroarginine methyl ester, reference compound] as the compound, how does the “eNOS expression, time course” value (eNOS expression) read?
A: sustained increase

Q: With `CCCCCCCCCCCCCC(=O)O[C@@H]1[C@@H](C)[C@@]2(O)[C@@H](C=C(CO)C[C@]3(O)C(=O)C(C)=C[C@@H]23)[C@@H]2C(C)(C)[C@]12OC(C)=O` [PMA, phorbol 12-myristate 13-acetate, reference compound] as the compound, how does the “eNOS levels after PKC activation” value (eNOS expression) read?
A: time-dependent (FIG. 5C) and dose-dependent (data not shown) increase in eNOS levels; also recorded: increased eNOS levels

Q: Which “effect of signalling inhibitors on VEGF-induced eNOS expression” value (from here on “effect of signalling inhibitors”) (eNOS expression; 2 days) does the source give for `Cc1ccc(-c2nn(C(C)(C)C)c3ncnc(N)c23)cc1` [PP1, reference compound] here?
A: also blocked eNOS expression

Q: With `CC(C)c1cc(/C=C(\C#N)C(=O)NCCCc2ccccc2)cc(C(C)C)c1O` [SU1498, reference compound] as the compound, how does the “effect on VEGF-induced eNOS up-regulation at high concentration” value (eNOS expression; 100 μM, 500 pM rhVEGF, 2 days) read?
A: completely blocked

Q: What about the “effect on VEGF-induced eNOS expression, KDR tyrosine kinase inhibitor” value (eNOS expression; 2 days) of the same compound?
A: dose-dependent prevention

Q: What about the “effect on VEGF-induced eNOS expression, KDR tyrosine kinase inhibitor” value (eNOS expression; 2 days, listed as SU-149 g) of the same compound?
A: dose dependent inhibition

Q: With `COC[C@H]1OC(=O)c2coc3c2[C@@]1(C)C1=C(C3=O)[C@@H]2CCC(=O)[C@@]2(C)C[C@H]1OC(C)=O` [Wortmannin, wortmannin, reference compound] as the compound, how does the “effect of signalling inhibitors” value (eNOS expression; 2 days) read?
A: no significant effect

Q: Which “effect of signalling inhibitors” value (eNOS expression; 2 days) does the source give for `O=c1c(-c2ccc(O)cc2)coc2cc(O)cc(O)c12` [genistein, reference compound] here?
A: blocked VEGF-induced eNOS expression

Q: With `CO[C@H]1[C@@H](OC)C[C@H](C)[C@@H](OC)C2=CC(=O)C=C(NC(=O)/C(C)=C/C=C\[C@H](OC)[C@@H](OC(N)=O)/C(C)=C/[C@@H]1C)C2=O` [herbimycin A, reference compound] as the compound, how does the “effect of signalling inhibitors” value (eNOS expression; 2 days) read?
A: blocked VEGF-induced eNOS expression

Q: For “EGF: recombinant human epidermal growth factor (NSDSECPLSHDGYCLHDGVCMYIEALDKYACNCVVGYIGERCQYRDLKWWELR; Epidermal growth factor; UniProt P01133 971-1023, looked up)”, which “eNOS expression with angiogenic factors” value (eNOS expression; 2 days) is on record?
A: no significant effect

Q: For “FGF: Recombinant human fibroblast growth factor (FGF) basic”, which “eNOS expression with angiogenic factors” value (eNOS expression; 2 days) is on record?
A: no significant effect

Q: Which “eNOS expression with angiogenic factors” value (eNOS expression; 2 days) does the source give for “HGF: heterodimeric form of recombinant human hepatocyte growth factor” here?
A: capable of increasing eNOS expression

Q: Which “eNOS expression with KDR-specific VEGF variants” value (eNOS expression; 2 days) does the source give for “LK-VRB-2f: full length 1-165 VEGF variant, D63S/G65M/L66R” here?
A: markedly up-regulated eNOS expression

Q: For “LK-VRB-2s*: VEGF (1-109) variant, D63S/G65M/L66R”, which IC50 (Flt-1 receptor [1]) is on record?
A: > 400 nM

Q: And the “eNOS expression with KDR-specific VEGF variants” value (eNOS expression; 2 days)?
A: markedly up-regulated eNOS expression

Q: Which “eNOS expression with angiogenic factors” value (eNOS expression; 2 days) does the source give for “TGF-beta1: recombinant human transforming growth factor” here?
A: reduced endogenous eNOS expression

Q: What does the source list for VEGF?
A: Relative Binding Affinity KDR Receptor (KDR receptor): 1 (97 pM); Relative Binding Affinity FLT-1 Receptor (Flt-1 receptor [2]; relative to Native VEGF 165): 1; IC50 (Flt-1 receptor [2]; value in brackets, read-out: Binding affinity FLT-1 Receptor): 0.037 nM; eNOS activity, acute treatment (eNOS activity; 0-60 min): time-dependent increase; eNOS activity in treated cells versus untreated control cells (eNOS activity; 2 days VEGF): about 5 fold; mean arterial pressure [3]: dose-rate dependent reduction in mean arterial pressure; re-distribution of PKC isoforms from cytosolic to membrane fractions (PKC): rapid re-distribution; angina class, angina frequency, treadmill times versus placebo [4]: trends of improvement; eNOS up-regulation in PAE/FLT-1 cells (PAE/FLT-1 cells): not in FLT-1 transfected PAE (PAE/FLT) cells; also recorded: not in FLT-1 containing PAE cells; eNOS expression, time course (eNOS expression): time-dependent but transient increase; also recorded: time-dependent increase in eNOS expression; eNOS expression with KDR-specific VEGF variants (eNOS expression; 2 days): induced a similar degree of eNOS expression; peak eNOS expression (eNOS expression; 2 days (48 hours) post exposure to 500 pM VEGF): 5.5 fold; concentration giving maximal increase of eNOS (eNOS expression; dose-dependent up-regulation): 500 pM; eNOS expression with VEGF forms and receptor-selective variants (eNOS expression; listed as VEGF165): induced a similar degree of eNOS expression; also recorded: induce eNOS up-regulation; eNOS association levels of caveolin and PLC-γ (eNOS): significantly reduces; also recorded: induces dissociation; levels of Hsp90 and Hsp70 associated with eNOS (eNOS): increase the levels of Hsp90 and Hsp70 associated with eNOS; also recorded: increase association

Q: For “VEGF110: heparin binding domain-deficient variant made from VEGF165 by limited proteolytic digestion with plasmin”, which “eNOS expression with KDR-specific VEGF variants” value (eNOS expression; 2 days) is on record?
A: induced a similar degree of eNOS expression

Q: What about the “eNOS expression with VEGF forms and receptor-selective variants” value (eNOS expression) of the same compound?
A: induced a similar degree of eNOS expression; also recorded: induce eNOS up-regulation
